In US12521373B2, “Use of losartan for the treatment of fibrotic diseases, in particular epidermolysis bullosa” (Crowd Pharma Losartan GmbH & Co. KG, priority 2020, dated 2026):

Columns and labels:
Type in all cases: in vivo, human
[1] = tested on: children with moderate to severe RDEB; experiment: Wong-Baker FACES Scale for Pain in clinical trial; conditions: first interim analysis, FIG. 6
Text: In order to check whether beneficial effects could be obtained in human beings, a clinical trial has been performed. In the trial a group of about 30 patients has been selected. Patient enrollment: 28 children with molecularly confirmed diagnosis of moderate to severe RDEB, age 2-16 years (age of 25 months), were enrolled at the EB Center Freiburg. The Wong-Baker FACES Scale for Pain that uses happy or sad faces shown in the score http://wongbakerfaces.org/) is the preferred method of pain reporting by children. This validated tool is widely used to rate pain severity in children with both chronic and acute pain.

[2] = tested on: RDEB patients; experiment: Clinical trial in RDEB patients, overall outcome; conditions: second interim analysis, summary
Procedure: In order to check whether beneficial effects could be obtained in human beings, a clinical trial has been performed. In the trial a group of about 30 patients has been selected. Patient enrollment: 28 children with molecularly confirmed diagnosis of moderate to severe RDEB, age 2-16 years (age of 25 months), were enrolled at the EB Center Freiburg. […] Such parameters were measured in the course of the trial.

[3] = tested on: children with moderate to severe RDEB; experiment: Itch Assessment Scale for the Pediatric Burn Patients in clinical trial; conditions: values at clinical visits after losartan initiation, FIG. 3
Text: In order to check whether beneficial effects could be obtained in human beings, a clinical trial has been performed. In the trial a group of about 30 patients has been selected. Patient enrollment: 28 children with molecularly confirmed diagnosis of moderate to severe RDEB, age 2-16 years (age of 25 months), were enrolled at the EB Center Freiburg. The Itch Assessment Scale for the Pediatric Burn Patients, a validated instrument for assessing skin burns, which are similar to RDEB. The scale is based on the Itch Man Scale developed by Blakeney & Marvin (2000), and was used to evaluate the intensity of itch of the trial participants. […] Values taken at clinical visits were determined.

[4] = tested on: children with moderate to severe RDEB; experiment: Safety and tolerability in clinical trial (adverse events, blood pressure, heart function)
Procedure: Furthermore, the proPNB(pg/ml) was also measured on each visit to evaluate for signs of heart failure.

[5] = tested on: children with moderate to severe RDEB; experiment: Quality of Life in EB (QOLEB) Questionnaire in clinical trial; conditions: first interim analysis, FIG. 7
Text: In order to check whether beneficial effects could be obtained in human beings, a clinical trial has been performed. In the trial a group of about 30 patients has been selected. Patient enrollment: 28 children with molecularly confirmed diagnosis of moderate to severe RDEB, age 2-16 years (age of 25 months), were enrolled at the EB Center Freiburg. Although pain and itch scores partly reflect the patients' quality of life, specific scores were used. […] Therefore, children under the age of 10 years included their parents' advice when completing the questionnaires, and children under 8 years of age or unable to read, have the parents completed the questionnaire.

[6] = tested on: CRP, IL6, Serum amyloid A and TNFα; experiment: Serum biomarkers of inflammation in clinical trial; conditions: over the trial, FIG. 8
Procedure: A blood sample for serum analysis was collected at all clinic visits. The analyses includes TGF levels, and biomarkers of inflammation and fibrosis, such as TNFα, CRP, ferritin, IL6 (FIG. 4) and amyloid. TGFβ and TNFα was analyzed by specific quantitative ELISAs (RayBiotech) at the EB Center Freiburg, while CRP, ferritin, IL6 and amyloid are measured at the central laboratories of the Medical Centers in Freiburg.

[7] = tested on: children with moderate to severe RDEB; experiment: Morphometric scoring of finger contractures (little span) in clinical trial; conditions: second interim analysis, FIG. 12
Procedure: During the ongoing clinical trial described in the preceding examples, an additional novel assessment parameter was added to measure progression of finger contractures: A morphometric scoring instrument that measures the length of the span when spreading fingers as far as possible. In particular, the following parameters were measured: maximal distance of thumb tip and index finger tip (separately for left hand and right hand and the mean value of both hands), also known as 'little span'. In RDEB, disease progression leads to shortening of the span and development of pseudosyndactylies and […] deformities.

[8] = tested on: children with moderate to severe RDEB; experiment: Epidermolysis Bullosa Disease Activity and Scarring Index (EBDASI) in clinical trial
Text: In order to check whether beneficial effects could be obtained in human beings, a clinical trial has been performed. In the trial a group of about 30 patients has been selected. Patient enrollment: 28 children with molecularly confirmed diagnosis of moderate to severe RDEB, age 2-16 years (age of 25 months), were enrolled at the EB Center Freiburg. A validated scoring instrument for EB that assesses response to therapy separately from chronic damage. It is therefore suitable for interventional trials. […] It includes an activity and damage component for: 1. skin; 2. scalp; 3. mucous membranes; 4. nails; 5. other epithelialized surfaces (incl. larynx, esophagus, genitourinary), hands-pseudosyndactyly and skin cancer. Statistical values for EBDASI are shown in FIG. 2 when determined at the visits in the clinic.

[9] = tested on: children with moderate to severe RDEB; experiment: Birmingham Epidermolysis Bullosa Severity Score (BEBS) in clinical trial; conditions: second interim analysis, baseline (clinic visit 1, day 1) vs clinic visit 5, week 40, FIG. 9
Text: In order to check whether beneficial effects could be obtained in human beings, a clinical trial has been performed. In the trial a group of about 30 patients has been selected. Patient enrollment: 28 children with molecularly confirmed diagnosis of moderate to severe RDEB, age 2-16 years (age of 25 months), were enrolled at the EB Center Freiburg. […] Eleven items are scored: area of damaged skin, involvement of nails, mouth, eyes, larynx and esophagus, scarring of hands, skin cancer, chronic wounds, alopecia and nutritional compromise. The area of damaged skin is allocated 50 points, and the 10 other items 5 points each, giving a maximum score of 100. […] Therefore, an additional EB-specific scoring instrument was used.

[10] = tested on: children with moderate to severe RDEB; experiment: Children's Dermatology Life Quality Index (CDLQI) in clinical trial
Text: In order to check whether beneficial effects could be obtained in human beings, a clinical trial has been performed. In the trial a group of about 30 patients has been selected. Patient enrollment: 28 children with molecularly confirmed diagnosis of moderate to severe RDEB, age 2-16 years (age of 25 months), were enrolled at the EB Center Freiburg. The Children's Dermatology Life Quality Index (CDLQI) was used in addition, since it has a version for young children, age of >4, using cartoon images. It consists of 10 questions regarding how the skin disease has affected the patient's quality of life over the past 1 week, in each of 10 domains, with 4 possible responses graded 0-3 (range of scores 0-30).

[11] = first interim analysis, after 18 patients had completed the study
[12] = second interim analysis, FIG. 10

## CCCCc1nc(Cl)c(CO)n1Cc1ccc(-c2ccccc2-c2nnn[nH]2)cc1 [Losartan, 2-Butyl-4-chloro-1-[[2′-(1H-tetrazol-5-yl)[1,1-biphenyl]-4-yl]methyl]-1H-imidazol-5-methanol]
[1]
  Pain assessment score: went statistically to a lower level
[2]
  Disease progression: reduced disease progression
  Disease symptoms: improved disease symptoms
[3]
  Itch score: a reduction of itch
[4]; first interim analysis
  Ejection fraction (heart's pump function): no differences
[4]; [11]
  Adverse events related to the Losartan treatment: no adverse events had been observed
  Overall safety and tolerability of treatment: safe and well tolerated
[4]; measured on each visit
  proPNB, signs of heart failure: no significant changes
[4]; normotensive patients, dosage regimen as disclosed
  Impact on the blood pressure: without negative impact
[4]; second interim analysis
  Number of adverse events possibly related to trial medication (pruritus, not serious): 1
  Safety of treatment: safe
[5]
  Quality of life score QoLEB: improvement
[6]
  CRP: went down
  IL6: went down
  Serum amyloid A: went down
  TNFα: went down
[7]
  Little span (distance between tip of the thumb and tip of the index finger): increase
[8]; during treatment, clinic visit 1 to clinic visit 5, FIG. 2
  EBDASI score: improved substantially
[8]; first interim analysis, FIG. 7
  EBDASI activity score: improved
  EBDASI damage score: improved
[8]; [12]
  EBDASI activity score: showed improvement
  EBDASI damage score: showed improvement
  EBDASI score: significantly improved
  EBDASI total score (sum of activity and damage score): showed improvement
[9]
  BEBS: improved
[10]; first interim analysis, FIG. 7
  Quality of life score CDLQI: improvement
[10]; second interim analysis, baseline (clinic visit 1, day 1) vs clinic visit 5, week 40, FIG. 11
  CDLQI score: amelioration of the quality of life
